From PubChem BioAssay AID248 (DTP/NCI, 2004)
Values joined by “and” are separate entries in the source; they are usually repeats but may differ in a detail not shown here. Equal entries are not always repeated. Toxic doses and inconclusive results are not listed. Rule as the data show it: active = T/C of 150% or more; inactive = T/C below 125%.

Test system: L1210 leukemia ip in BDF1 mice, survival T/C
Test: NCI In Vivo Anticancer Drug Screen. Data for tumor model L1210 Leukemia (intraperitoneal) in B6D2F1 (BDF1) mice
Settings: endpoint: mean survival time, higher = longer survival
Outline: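 Each compound was tested against a transplantable tumor grown in mice. The endpoint was survival, with treated animals benchmarked against vehicle controls as a simple ratio.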

[1] = dose: 100.0 mg/kg/injection, schedule: Q01DX001 (ip), vehicle: Klucel (hydroxypropylcellulose) (HPC)
[2] = dose: 100.0 mg/kg/injection, schedule: Q04DX003 (ip), vehicle: Klucel (hydroxypropylcellulose) (HPC)
[3] = dose: 200.0 mg/kg/injection, schedule: Q01DX001 (ip), vehicle: Klucel (hydroxypropylcellulose) (HPC)
[4] = dose: 200.0 mg/kg/injection, schedule: Q04DX003 (ip), vehicle: Klucel (hydroxypropylcellulose) (HPC)
[5] = dose: 400.0 mg/kg/injection, schedule: Q01DX001 (ip), vehicle: Klucel (hydroxypropylcellulose) (HPC)
[6] = dose: 50.0 mg/kg/injection, schedule: Q01DX009 (ip), vehicle: saline
[7] = dose: 100.0 mg/kg/injection, schedule: Q01DX009 (ip), vehicle: saline
[8] = dose: 100.0 mg/kg/injection, schedule: Q01DX001 (ip), vehicle: saline
[9] = dose: 200.0 mg/kg/injection, schedule: Q01DX001 (ip), vehicle: saline
[10] = dose: 400.0 mg/kg/injection, schedule: Q01DX001 (ip), vehicle: saline
[11] = dose: 100.0 mg/kg/injection, schedule: Q01DX009 (ip), vehicle: Klucel (hydroxypropylcellulose) (HPC)
[12] = dose: 200.0 mg/kg/injection, schedule: Q01DX009 (ip), vehicle: Klucel (hydroxypropylcellulose) (HPC)
[13] = dose: 400.0 mg/kg/injection, schedule: Q01DX009 (ip), vehicle: Klucel (hydroxypropylcellulose) (HPC)
[14] = dose: 100.0 mg/kg/injection, schedule: Q04DX003 (ip), vehicle: saline with Tween-80
[15] = dose: 400.0 mg/kg/injection, schedule: Q04DX003 (ip), vehicle: Klucel (hydroxypropylcellulose) (HPC)
[16] = dose: 100.0 mg/kg/injection, schedule: Q04DX002 (ip), vehicle: Klucel (hydroxypropylcellulose) (HPC)
[17] = dose: 200.0 mg/kg/injection, schedule: Q04DX002 (ip), vehicle: Klucel (hydroxypropylcellulose) (HPC)
[18] = dose: 100.0 mg/kg/injection, schedule: Q04DX003 (ip), vehicle: saline
[19] = dose: 200.0 mg/kg/injection, schedule: Q04DX003 (ip), vehicle: saline
[20] = dose: 400.0 mg/kg/injection, schedule: Q04DX003 (ip), vehicle: saline

Measured: T/C

CCCCCCCCCCCCCCCCNC(=S)Nc1ccc(C(=O)O)cc1
inactive: dose: 12.0 mg/kg/injection, schedule: Q04DX003 (ip), vehicle: Klucel (hydroxypropylcellulose) (HPC) 94 % of control | dose: 25.0 mg/kg/injection, schedule: Q04DX003 (ip), vehicle: Klucel (hydroxypropylcellulose) (HPC) 104 % of control | dose: 50.0 mg/kg/injection, schedule: Q04DX003 (ip), vehicle: Klucel (hydroxypropylcellulose) (HPC) 102 % of control | [1] 95 % of control | [2] 96 % of control | [3] 101 % of control | [4] 93 % of control | [5] 105 % of control

CCCCNC(C)(C)C(SS)c1ccco1 (centres undefined)
inactive: dose: 12.5 mg/kg/injection, schedule: Q04DX003 (ip), vehicle: alcohol 104 % of control | dose: 25.0 mg/kg/injection, schedule: Q01DX009 (ip), vehicle: saline 97 % of control | dose: 25.0 mg/kg/injection, schedule: Q04DX003 (ip), vehicle: alcohol 101 % of control | [6] 92 % of control | dose: 50.0 mg/kg/injection, schedule: Q04DX003 (ip), vehicle: alcohol 96 % of control | [7] 98 % of control | dose: 100.0 mg/kg/injection, schedule: Q04DX003 (ip), vehicle: alcohol 101 % of control | dose: 150.0 mg/kg/injection, schedule: Q01DX009 (ip), vehicle: saline with Tween-80 92 % of control | dose: 200.0 mg/kg/injection, schedule: Q04DX003 (ip), vehicle: alcohol 104 % of control

COc1ccc2c3c1OC1C(OC(C)=O)=CCC4C(C2)N(C)CCC314 (centres undefined)
inactive: [8] 93 % of control

O=C1C=CC(=NBr)C=C1
inactive: dose: 12.5 mg/kg/injection, schedule: Q01DX009 (ip), vehicle: Klucel (hydroxypropylcellulose) (HPC) 89 % of control | dose: 25.0 mg/kg/injection, schedule: Q01DX009 (ip), vehicle: Klucel (hydroxypropylcellulose) (HPC) 92 % of control | dose: 50.0 mg/kg/injection, schedule: Q01DX009 (ip), vehicle: Klucel (hydroxypropylcellulose) (HPC) 89 % of control

Clc1ccnc2c1ccc1c(Cl)ccnc12
inactive: dose: 50.0 mg/kg/injection, schedule: Q01DX001 (ip), vehicle: carboxymethylcellulose (CMC) 88 % of control

O=C1OCC(Cl)=C1Cl
inactive: dose: 6.25 mg/kg/injection, schedule: Q04DX003 (ip), vehicle: saline 101 % of control | dose: 12.5 mg/kg/injection, schedule: Q04DX003 (ip), vehicle: saline 101 % of control | dose: 25.0 mg/kg/injection, schedule: Q04DX003 (ip), vehicle: saline 103 % of control

NCCCCC(N)C(=O)O (centres undefined)
inactive: [1] 115 % of control | [8] 94 % of control | [3] 100 % of control | [9] 97 % of control | [5] 86 % of control | [10] 94 % of control

O=C(Nc1cccc([N+](=O)[O-])c1)c1cccc(C(=O)Nc2cccc([N+](=O)[O-])c2)c1
inactive: [11] 94 % of control | [12] 89 % of control | [13] 89 % of control

CC1OC(n2cnc3c(=S)nc[nH]c32)C(O)C1O (centres undefined)
inactive: dose: 50.0 mg/kg/injection, schedule: Q01DX001 (ip), vehicle: saline 93 % of control | [8] 96 % of control | [9] 102 % of control | [10] 93 % of control

CCCCCCC1CC1
inactive: [6] 94 % of control | [7] 102 % of control | dose: 200.0 mg/kg/injection, schedule: Q01DX009 (ip), vehicle: saline 102 % of control

CC(C)(Oc1cccc2ccccc12)C(=O)O
inactive: [14] 100 % of control | dose: 200.0 mg/kg/injection, schedule: Q04DX003 (ip), vehicle: saline with Tween-80 105 % of control | dose: 400.0 mg/kg/injection, schedule: Q04DX003 (ip), vehicle: saline with Tween-80 93 % of control

O=c1[nH]c2cscc2c(=O)n1O
inactive: [2] 103 % of control | [4] 97 % of control | [15] 107 % of control

CC1(C)CC(=O)C2C(C1)Nc1ccccc1NC2c1ccccc1[N+](=O)[O-] (centres undefined)
inactive: [16] 103 % of control and 110 % of control | [17] 98 % of control and 92 % of control | dose: 400.0 mg/kg/injection, schedule: Q04DX002 (ip), vehicle: Klucel (hydroxypropylcellulose) (HPC) 95 % of control

O=P(CCCCl)(OCCCCl)OCCCCl
inactive: [18] 104 % of control | [19] 114 % of control | [20] 96 % of control

CSc1ccc(C)cc1C
inactive: [11] 105 % of control | [12] 103 % of control | [13] 105 % of control

CCSC(SCC)C(OC(C)=O)C(OC(C)=O)C(OC(C)=O)C(CNC(C)=O)OC(C)=O (centres undefined)
inactive: dose: 25.0 mg/kg/injection, schedule: Q04DX003 (ip), vehicle: saline with Tween-80 97 % of control | dose: 50.0 mg/kg/injection, schedule: Q04DX003 (ip), vehicle: saline with Tween-80 94 % of control | [14] 93 % of control and 89 % of control

C/C=C(\CC)C(=O)O.[Pb]
inactive: dose: 50.0 mg/kg/injection, schedule: Q04DX002 (ip), vehicle: saline with Tween-80 97 % of control | dose: 100.0 mg/kg/injection, schedule: Q04DX002 (ip), vehicle: saline with Tween-80 96 % of control and 119 % of control | dose: 200.0 mg/kg/injection, schedule: Q04DX002 (ip), vehicle: saline with Tween-80 100 % of control | dose: 400.0 mg/kg/injection, schedule: Q04DX002 (ip), vehicle: saline with Tween-80 92 % of control

OCC1(CO)COC2(CCCCC2)OC1
inactive: [2] 89 % of control | [4] 91 % of control | [15] 91 % of control

CCC(C)C(C=NCC(CCN1CCOCC1)(c1ccc2ccccc2c1)C(C)CC)(CCN1CCOCC1)c1ccc2ccccc2c1 (centres undefined)
inactive: dose: 50.0 mg/kg/injection, schedule: Q04DX002 (ip), vehicle: Klucel (hydroxypropylcellulose) (HPC) 100 % of control | [16] 92 % of control | [17] 92 % of control

CCOC(=O)C[n+]1ccccc1/C=C/c1ccc(O)cc1
inactive: dose: 9.38 mg/kg/injection, schedule: Q01DX001 (ip), vehicle: other 101 % of control

BrC1(Br)CC1(c1ccccc1)c1ccccc1
inactive: [11] 93 % of control | [2] 107 % of control | [18] 107 % of control | [12] 97 % of control | [4] 107 % of control | [19] 107 % of control | [13] 101 % of control | [15] 97 % of control | [20] 97 % of control
